The record followed here is US10538555B2, “Macrocyclic inhibitors of the PD-1/PD-L1 and CD80(B7-1)/PD-L1 protein/protein interactions” (BRISTOL-MYERS SQUIBB COMPANY, priority 2014, dated 2020).

Where a SMILES comes first, the peptide text is derived from it. Bridges are numbered along the chain shown (N, C = ends). [ ]: non-standard residue; d: D form. Phe(3,4,5-F3) = N[C@@H](Cc1cc(F)c(F)c(F)c1)C(=O)O; NMePhe(4-F) = CN[C@@H](Cc1ccc(F)cc1)C(=O)O; NMeF = CN[C@@H](Cc1ccccc1)C(=O)O; dHyp = O=C(O)[C@H]1C[C@H](O)CN1; NMeNle = CCCC[C@H](NC)C(=O)O; dPip = O=C(O)[C@H]1CCCCN1; Dab = NCC[C@H](N)C(=O)O; Dap = NC[C@H](N)C(=O)O

This experiment addresses T1, Human PD-L1/PD-1 (Homo sapiens, UniProt Q9NZQ7).
T1 construct: TVMV protease cleavage site (C); made in house; host or cells: HEK293T cells
In words: HTRF Human PD-L1/PD-1 binding assay (PD-1-Ig/PD-L1-His). To be noted: PD-L1-His 10 nM, PD-1-Ig 20 nM; class symbol; read-out: HTRF Human PD-L1/PD-1 Binding Assay IC50 Range. Put shortly: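 Soluble HEK293T-expressed proteins: hPD-L1-His 10 nM, hPD-1-Ig 20 nM final. Cpd + PD-L1 15 min, + PD-1 15 min, + Eu anti-Ig 1 nM/APC anti-His 20 nM 30 min. Buffer dPBS, 0.1% BSA, 0.05% Tween-20. TR-FRET 665/620.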
(TR-FRET usually uses a lanthanide donor and a delayed reading to cut background.)

T1 sequence (Q9NZQ7 with tags, fused parts or gaps): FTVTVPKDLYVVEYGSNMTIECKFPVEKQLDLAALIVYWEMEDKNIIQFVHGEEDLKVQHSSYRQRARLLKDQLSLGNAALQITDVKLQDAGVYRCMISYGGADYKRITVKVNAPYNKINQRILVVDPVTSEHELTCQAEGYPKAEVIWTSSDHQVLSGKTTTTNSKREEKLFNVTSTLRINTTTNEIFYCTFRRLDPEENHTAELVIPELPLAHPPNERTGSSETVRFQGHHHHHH

Consider `CCCC[C@H]1C(=O)N2C[C@@H](O)C[C@@H]2C(=O)N[C@@H](CC(=O)O)C(=O)N[C@@H](C(C)C)C(=O)N(C)[C@@H](Cc2ccccc2)C(=O)N[C@@H](CCC(=O)O)C(=O)N2CCCC[C@@H]2C(=O)N[C@@H](Cc2c[nH]c3ccccc23)C(=O)N[C@@H](Cc2ccc(O)cc2)C(=O)N[C@@H](CN)C(=O)N[C@H](C(=O)NCC(N)=O)CSCC(=O)N[C@@H](Cc2cc(F)c(F)c(F)c2)C(=O)N(C)[C@@H](Cc2ccc(F)cc2)C(=O)N1C` [Example 10567] ({CH2CO}-[Phe(3,4,5-F3)][NMePhe(4-F)][NMeNle][dHyp]DV[NMeF]E[dPip]WY[Dap]CG-NH2; thioether N-13), for which the IC50 was in the range of 1 to 9.9 nM.
Next, `CCCC[C@H]1C(=O)N2CCC[C@@H]2C(=O)N[C@@H](CC(=O)O)C(=O)N[C@@H](C(C)C)C(=O)N(C)[C@@H](Cc2ccccc2)C(=O)N[C@@H](CCC(=O)O)C(=O)N2CCCC[C@@H]2C(=O)N[C@@H](Cc2c[nH]c3ccccc23)C(=O)N[C@@H](Cc2ccc(O)cc2)C(=O)N[C@@H](CCN)C(=O)N[C@H](C(=O)NCC(N)=O)CSCC(=O)N[C@@H](Cc2cc(F)c(F)c(F)c2)C(=O)N(C)[C@@H](Cc2ccc(F)cc2)C(=O)N1C` [Example 10568] ({CH2CO}-[Phe(3,4,5-F3)][NMePhe(4-F)][NMeNle][dP]DV[NMeF]E[dPip]WY[Dab]CG-NH2; thioether N-13): 1 to 9.9 nM.
With `CCCC[C@H]1C(=O)N2CCC[C@@H]2C(=O)N[C@@H](CC(=O)O)C(=O)N[C@@H](C(C)C)C(=O)N(C)[C@@H](Cc2ccccc2)C(=O)N[C@@H](CCC(=O)O)C(=O)N2CCCC[C@@H]2C(=O)N[C@@H](Cc2c[nH]c3ccccc23)C(=O)N[C@@H](Cc2ccc(O)cc2)C(=O)N[C@@H](CN)C(=O)N[C@H](C(=O)NCC(N)=O)CSCC(=O)N[C@@H](Cc2cc(F)c(F)c(F)c2)C(=O)N(C)[C@@H](Cc2ccc(F)cc2)C(=O)N1C` [Example 10569] ({CH2CO}-[Phe(3,4,5-F3)][NMePhe(4-F)][NMeNle][dP]DV[NMeF]E[dPip]WY[Dap]CG-NH2; thioether N-13), the IC50 lay within 1 to 9.9 nM.
Take `CCCC[C@H]1C(=O)N2CCC[C@@H]2C(=O)N[C@@H](CC(=O)O)C(=O)N[C@@H](C(C)C)C(=O)N(C)[C@@H](Cc2ccccc2)C(=O)N[C@@H](CC(=O)O)C(=O)N2CCCC[C@@H]2C(=O)N[C@@H](Cc2c[nH]c3ccccc23)C(=O)N[C@@H](Cc2ccc(O)cc2)C(=O)N[C@@H](CC(C)C)C(=O)N[C@H](C(=O)NCC(N)=O)CSCC(=O)N[C@@H](Cc2cc(F)c(F)c(F)c2)C(=O)N(C)[C@@H](Cc2ccc(F)cc2)C(=O)N1C` [Example 10570] ({CH2CO}-[Phe(3,4,5-F3)][NMePhe(4-F)][NMeNle][dP]DV[NMeF]D[dPip]WYLCG-NH2; thioether N-13): the IC50 fell in the range of 1 to 9.9 nM.
As for `CCCC[C@H]1C(=O)N2CCC[C@@H]2C(=O)N[C@@H](CC(=O)O)C(=O)N[C@@H](C(C)C)C(=O)N(C)[C@@H](Cc2ccccc2)C(=O)N[C@@H](CC(=O)O)C(=O)N2CCCC[C@@H]2C(=O)N[C@@H](Cc2c[nH]c3ccccc23)C(=O)N[C@@H](Cc2ccc(O)cc2)C(=O)N[C@@H](CCN)C(=O)N[C@H](C(=O)NCC(N)=O)CSCC(=O)N[C@@H](Cc2cc(F)c(F)c(F)c2)C(=O)N(C)[C@@H](Cc2ccc(F)cc2)C(=O)N1C` [Example 10571] ({CH2CO}-[Phe(3,4,5-F3)][NMePhe(4-F)][NMeNle][dP]DV[NMeF]D[dPip]WY[Dab]CG-NH2; thioether N-13), the IC50 lay within 1 to 9.9 nM.
Regarding `CCCC[C@H]1C(=O)N2CCC[C@@H]2C(=O)N[C@@H](CC(=O)O)C(=O)N[C@@H](C(C)C)C(=O)N(C)[C@@H](Cc2ccccc2)C(=O)N[C@@H](CC(=O)O)C(=O)N2CCCC[C@@H]2C(=O)N[C@@H](Cc2c[nH]c3ccccc23)C(=O)N[C@@H](Cc2ccc(O)cc2)C(=O)N[C@@H](CN)C(=O)N[C@H](C(=O)NCC(N)=O)CSCC(=O)N[C@@H](Cc2cc(F)c(F)c(F)c2)C(=O)N(C)[C@@H](Cc2ccc(F)cc2)C(=O)N1C` [Example 10572] ({CH2CO}-[Phe(3,4,5-F3)][NMePhe(4-F)][NMeNle][dP]DV[NMeF]D[dPip]WY[Dap]CG-NH2; thioether N-13), the IC50 lay within 1 to 9.9 nM.
Consider `CCCC[C@H]1C(=O)N2CCC[C@@H]2C(=O)N[C@@H](CC(=O)O)C(=O)N[C@@H](C(C)C)C(=O)N(C)[C@@H](Cc2ccccc2)C(=O)N[C@@H](CC(=O)O)C(=O)N2CCCC[C@@H]2C(=O)N[C@@H](Cc2c[nH]c3ccccc23)C(=O)N[C@@H](Cc2ccc(O)cc2)C(=O)N[C@@H](CO)C(=O)N[C@H](C(=O)NCC(N)=O)CSCC(=O)N[C@@H](Cc2cc(F)c(F)c(F)c2)C(=O)N(C)[C@@H](Cc2ccc(F)cc2)C(=O)N1C` [Example 10573] ({CH2CO}-[Phe(3,4,5-F3)][NMePhe(4-F)][NMeNle][dP]DV[NMeF]D[dPip]WYSCG-NH2; thioether N-13), for which the IC50 is 1 to 9.9 nM.
With `CCCC[C@H]1C(=O)N2CCC[C@@H]2C(=O)N[C@@H](CC(=O)O)C(=O)N[C@@H](C(C)C)C(=O)N(C)[C@@H](Cc2ccccc2)C(=O)N[C@@H](CC(=O)O)C(=O)N2CCCC[C@@H]2C(=O)N[C@@H](Cc2c[nH]c3ccccc23)C(=O)N[C@@H](Cc2ccc(O)cc2)C(=O)N[C@@H](CC(N)=O)C(=O)N[C@H](C(=O)NCC(N)=O)CSCC(=O)N[C@@H](Cc2cc(F)c(F)c(F)c2)C(=O)N(C)[C@@H](Cc2ccc(F)cc2)C(=O)N1C` [Example 10574] ({CH2CO}-[Phe(3,4,5-F3)][NMePhe(4-F)][NMeNle][dP]DV[NMeF]D[dPip]WYNCG-NH2; thioether N-13), the IC50 fell in the range of 1 to 9.9 nM.
Next, `CCCC[C@H]1C(=O)N2CCC[C@@H]2C(=O)N[C@@H](CCC(=O)O)C(=O)N[C@@H](C(C)C)C(=O)N(C)[C@@H](Cc2ccccc2)C(=O)N[C@@H](CCC(=O)O)C(=O)N2CCCC[C@@H]2C(=O)N[C@@H](Cc2c[nH]c3ccccc23)C(=O)N[C@@H](Cc2ccc(O)cc2)C(=O)N[C@@H](CC(C)C)C(=O)N[C@H](C(=O)NCC(N)=O)CSCC(=O)N[C@@H](Cc2cc(F)c(F)c(F)c2)C(=O)N(C)[C@@H](Cc2ccc(F)cc2)C(=O)N1C` [Example 10576] ({CH2CO}-[Phe(3,4,5-F3)][NMePhe(4-F)][NMeNle][dP]EV[NMeF]E[dPip]WYLCG-NH2; thioether N-13): 1 to 9.9 nM.
In the case of `CCCC[C@H]1C(=O)N2CCC[C@@H]2C(=O)N[C@@H](CCN)C(=O)N[C@@H](C(C)C)C(=O)N(C)[C@@H](Cc2ccccc2)C(=O)N[C@@H](CCC(=O)O)C(=O)N2CCCC[C@@H]2C(=O)N[C@@H](Cc2c[nH]c3ccccc23)C(=O)N[C@@H](Cc2ccc(O)cc2)C(=O)N[C@@H](CC(C)C)C(=O)N[C@H](C(=O)NCC(N)=O)CSCC(=O)N[C@@H](Cc2cc(F)c(F)c(F)c2)C(=O)N(C)[C@@H](Cc2ccc(F)cc2)C(=O)N1C` [Example 10577] ({CH2CO}-[Phe(3,4,5-F3)][NMePhe(4-F)][NMeNle][dP][Dab]V[NMeF]E[dPip]WYLCG-NH2; thioether N-13) it was 1 to 9.9 nM; in that of `CCCC[C@H]1C(=O)N2CCC[C@@H]2C(=O)N[C@@H](CN)C(=O)N[C@@H](C(C)C)C(=O)N(C)[C@@H](Cc2ccccc2)C(=O)N[C@@H](CCC(=O)O)C(=O)N2CCCC[C@@H]2C(=O)N[C@@H](Cc2c[nH]c3ccccc23)C(=O)N[C@@H](Cc2ccc(O)cc2)C(=O)N[C@@H](CC(C)C)C(=O)N[C@H](C(=O)NCC(N)=O)CSCC(=O)N[C@@H](Cc2cc(F)c(F)c(F)c2)C(=O)N(C)[C@@H](Cc2ccc(F)cc2)C(=O)N1C` [Example 10578] ({CH2CO}-[Phe(3,4,5-F3)][NMePhe(4-F)][NMeNle][dP][Dap]V[NMeF]E[dPip]WYLCG-NH2; thioether N-13), 1 to 9.9 nM; in that of `CCCC[C@H]1C(=O)N2CCC[C@@H]2C(=O)N[C@@H](CC(N)=O)C(=O)N[C@@H](C(C)C)C(=O)N(C)[C@@H](Cc2ccccc2)C(=O)N[C@@H](CCC(=O)O)C(=O)N2CCCC[C@@H]2C(=O)N[C@@H](Cc2c[nH]c3ccccc23)C(=O)N[C@@H](Cc2ccc(O)cc2)C(=O)N[C@@H](CC(C)C)C(=O)N[C@H](C(=O)NCC(N)=O)CSCC(=O)N[C@@H](Cc2cc(F)c(F)c(F)c2)C(=O)N(C)[C@@H](Cc2ccc(F)cc2)C(=O)N1C` [Example 10579] ({CH2CO}-[Phe(3,4,5-F3)][NMePhe(4-F)][NMeNle][dP]NV[NMeF]E[dPip]WYLCG-NH2; thioether N-13), 1 to 9.9 nM.
`CCCC[C@H]1C(=O)N2CCC[C@@H]2C(=O)N[C@@H](CCC(=O)O)C(=O)N[C@@H](C(C)C)C(=O)N(C)[C@@H](Cc2ccccc2)C(=O)N[C@@H](CC(=O)O)C(=O)N2CCCC[C@@H]2C(=O)N[C@@H](Cc2c[nH]c3ccccc23)C(=O)N[C@@H](Cc2ccc(O)cc2)C(=O)N[C@@H](CC(C)C)C(=O)N[C@H](C(=O)NCC(N)=O)CSCC(=O)N[C@@H](Cc2cc(F)c(F)c(F)c2)C(=O)N(C)[C@@H](Cc2ccc(F)cc2)C(=O)N1C` [Example 10580] ({CH2CO}-[Phe(3,4,5-F3)][NMePhe(4-F)][NMeNle][dP]EV[NMeF]D[dPip]WYLCG-NH2; thioether N-13): the IC50 was 1 to 9.9 nM.
In the case of `CCCC[C@H]1C(=O)N2CCC[C@@H]2C(=O)N[C@@H](CCN)C(=O)N[C@@H](C(C)C)C(=O)N(C)[C@@H](Cc2ccccc2)C(=O)N[C@@H](CC(=O)O)C(=O)N2CCCC[C@@H]2C(=O)N[C@@H](Cc2c[nH]c3ccccc23)C(=O)N[C@@H](Cc2ccc(O)cc2)C(=O)N[C@@H](CC(C)C)C(=O)N[C@H](C(=O)NCC(N)=O)CSCC(=O)N[C@@H](Cc2cc(F)c(F)c(F)c2)C(=O)N(C)[C@@H](Cc2ccc(F)cc2)C(=O)N1C` [Example 10581] ({CH2CO}-[Phe(3,4,5-F3)][NMePhe(4-F)][NMeNle][dP][Dab]V[NMeF]D[dPip]WYLCG-NH2; thioether N-13) it was 10 to 99.9 nM.
